Legend:
blanching in humans = test: McKenzie-type human blanching studies; type: in vivo; conditions: forearm, 6 hours occlusion
Protocol: McKenzie-type human blanching studies were undertaken to study the blanching effects of a representative test compound of the invention, chloromethyl 17α-ethoxycarbonyloxy-11β-hydroxyandrost-4-en-3-one-17β-carboxylate.
The test compound was dissolved in ethanol/isopropyl myristate (90/10 or 70/30) at 0.03, 0.01, 0.003, 0.001 and 0.0003 M concentrations. 50 Microliter aliquots of each solution were applied to separate gauze portions of a bandage of the type commonly used for allergy testing and the bandage was applied to the forearm. After 6 hours of occlusion, the bandage was removed.

thymus weight in rats = test: Thymus involution test (topically administered steroids, thymus weight in rats)
Protocol: The test animals were female Sprague/Dawley rats weighing approximately 40-45 grams each. One side of each ear of each rat was treated with a total of 25 microliters of a solution (ethanol/isopropyl myristate or acetone/isopropyl myristate, 90/10) containing the amount of test compound indicated below. Animals which were treated identically, save for omission of the test compound, served as controls. After 24 hours, all rats were sacrificed and weighed, and their thymi were removed and weighed.
The lower the weight of the thymi, the greater the systemic activity.

[1] = 0.75 μmol topical on ear, after 24 hours

Question: With `C[C@]12CCC(=O)C=C1CC[C@@H]1[C@@H]2[C@@H](O)C[C@@]2(C)[C@H]1CC[C@]2(O)C(=O)CO` [Hydrocortisone] as the compound, how does the blanching (blanching in humans; 0.03 to 0.0003 M, 50 microliter, read 1 to 5 hours after removal) read?
Answer: The blanching was “blanching was not observed at concentrations of hydrocortisone below 0.03 M”.

Question: What about the “concentration causing approximately the same degree of blanching” value (blanching in humans; direct comparison) of the same compound?
Answer: Its value is roughly 0.03 M.

Question: What about the “decrease in thymus weight compared to the control (in words)” value (thymus weight in rats; 0.75 μmol topical) of the same compound?
Answer: Its value is “causes a significant decrease in thymus weight compared to the control”.

Question: And the “Total Weight per Rat, % Gain ± SD” value (thymus weight in rats; [1])?
Answer: The value was 24 ± 7%.

Question: What about the “Total Weight per Rat, Final” value (thymus weight in rats; [1]) of the same compound?
Answer: Its value is 61.15 g.

Question: What about the “mg Thymus ± SD / 100 g Rat” value (thymus weight in rats; [1]) of the same compound?
Answer: The value was 274 ± 45 mg/100 g.
